What all share (assay): inhibition of tumour cell growth, NCI panel, 48 h
Experiment [1] has as its system 786-0 renal.
The subject of experiment [2] is A498 renal.
The test system of experiment [3] is ACHN renal.
For experiment [4], the system named is BT-549 breast.
Experiment [5] has as its system CAKI-1 renal.
Experiment [6] deals with COLO 205 colon.
Experiment [7] concerns HCT-15 colon.
Experiment [8] concerns HL-60(TB) leukemia.
In experiment [9] the test system is HOP-62 NSCLC.
Experiment [10] relates to HOP-92 NSCLC.
Experiment [11] relates to KM12 colon.
The test system of experiment [12] is NCI-H23 lung.
Experiment [13] deals with NCI-H460 lung.
Experiment [14] has as its system SF-539 CNS.
Experiment [15] concerns SR leukemia.
For experiment [16], the system named is SW-620 colon.
For experiment [17], the system named is T-47D breast.
For experiment [18], the system named is TK-10 renal.
Experiment [19] relates to U251 CNS.

The structures appear in SMILES notation.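 In this assay, cells in 96-well plates receive the compound at five concentrations for 48 hours. Endpoints are linearly interpolated between the surrounding concentrations. TGI denotes the concentration required for complete inhibition of growth.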 Where only a bound is given, the exact number is not on record here.

Regarding `COC1=C2CC(C)CC(OC)C(OC(=O)CCCN)C(C)/C=C(\C)C(OC(N)=O)C(OC)/C=C\C=C(/C)C(=O)NC(=CC1=O)C2=O` (centres undefined), the TGI in [1] came out at 18.1 µM; in experiment [2] it was 30.6 µM; in experiment [3], 17.8 µM; in [4], 15.8 µM; in [5] it was 23.3 µM; in experiment [6], 9.48 µM. The TGI in experiment [7] came to 14.5 µM; in experiment [8] it was 1.65 µM; in experiment [9] it was 32 µM; in [10] it was 14.6 µM; in experiment [11], 25.7 µM; in [12], 14.4 µM. Also, the TGI was 36.5 µM in [13]; 16.9 µM in experiment [14]; 21.5 µM in [15]; 17.7 µM in experiment [16]; 4.65 µM in experiment [17]; 20.2 µM in [18]. Besides, in [19], the TGI came out at 34.5 µM.
On to `O=C1C=C(C2=C(C3=CC(=O)c4ccccc4C3=O)C(=O)c3ccccc3C2=O)C(=O)c2ccccc21`, for which the TGI in experiment [1] turned out to be 12.6 µM; in [2], 36.8 µM; in experiment [3] it was 37.9 µM; in experiment [4], 28.9 µM; in experiment [5] it was 11.7 µM; in [6], 17.3 µM. For the same compound, the TGI worked out at 28.9 µM in experiment [7]; 3.68 µM in experiment [8]; 33.5 µM in experiment [9]; 18 µM in experiment [10]; 30.8 µM in experiment [11]; 19.7 µM in [12]. Also, the TGI in experiment [13] was 39.6 µM; in [14] it was 21.7 µM; in [15] it was > 100 µM; in experiment [16], 20.5 µM; in experiment [17], 29.5 µM; in [18], 21.8 µM. Also, the TGI in [19] was 18.1 µM.
Consider `O=C(O)Cc1cccc2c(=O)c3cccc([N+](=O)[O-])c3[nH]c12`, for which the TGI is > 100 µM in experiment [1]; > 100 µM in experiment [2]; > 100 µM in experiment [3]; > 100 µM in experiment [4]; > 100 µM in experiment [5]; 39.4 µM in [6]. Further, the TGI in [7], in experiment [8], in experiment [9], in experiment [10], in [11] and in experiment [12] was > 100 µM in each case. Moreover, the TGI was > 100 µM in experiment [13]; 78.1 µM in experiment [14]; > 100 µM in experiment [15]; > 100 µM in experiment [16]; > 100 µM in experiment [17]; > 100 µM in experiment [18]. Besides, the TGI in [19] is > 100 µM.
As to `c1ccc(C2=C(c3ccccc3)Sc3nnc(CCCCCCCCc4nnc5n4NC(c4ccccc4)=C(c4ccccc4)S5)n3N2)cc1`, the TGI in [1], in experiment [2], in experiment [3], in [4], in [5] and in [6] was > 100 µM throughout. The TGI in experiment [7] is > 100 µM; in experiment [8], 37.2 µM; in experiment [9] it was > 100 µM; in [10], > 100 µM; in [11], > 100 µM; in experiment [12] it was > 100 µM. Besides, the TGI in [13] was > 100 µM; in [14] it was > 100 µM; in experiment [15] it was > 100 µM; in experiment [16], > 100 µM; in experiment [17] it was 79.2 µM; in experiment [18], > 100 µM. Besides, the TGI in [19] is > 100 µM.
`O=c1[nH]c2nc[nH]c2c(=O)n1C1CCCCC1`: the TGI in experiment [1], in experiment [2], in experiment [3], in [4], in experiment [5] and in experiment [6] was > 100 µM each time. Also, the TGI in experiment [7], in experiment [8], in [9], in [10], in experiment [11] and in [12] was > 100 µM in each case. Also, the TGI in [13], in experiment [14], in experiment [15], in experiment [16], in experiment [17] and in experiment [18] was > 100 µM in each case. Moreover, the TGI in experiment [19] is > 100 µM.
Regarding `CCOC(=O)/C=C\C(C#N)(C#N)N=Cc1ccsc1`, the TGI is 5.01 µM in [1]; 33.5 µM in [2]; 9.26 µM in experiment [3]; 12.1 µM in experiment [4]; 5.33 µM in [5]; 3.4 µM in [6]. The TGI in [7] amounted to 10.1 µM; in experiment [8] it was 5.14 µM; in experiment [9], 36.9 µM; in experiment [10], 4.52 µM; in [11] it was 36.5 µM; in experiment [12] it was 29.9 µM. The TGI in experiment [13] stood at 43.7 µM; in [14], 12.9 µM; in experiment [15], 18.1 µM; in experiment [16] it was 4.11 µM; in experiment [17], 4.49 µM; in experiment [18], 4.63 µM. Besides, in experiment [19], the TGI came out at 33.1 µM.

The values are drawn from PubChem BioAssay (NCI).
